US20200131144A1, “AMINE OR (THIO)AMIDE CONTAINING LXR MODULATORS” (Phenex-FXR GmbH, priority 2017, published 2020)

What was measured:
[1] = target: T1, GST-LXRβ ligand-binding domain (Homo sapiens, UniProt P55055, INS174Q); experiment: TR-FRETβ activity assay (NCoA3 coactivator peptide recruitment); format: biochemical; details: 1 μM 24(S)-25-epoxycholesterol as prestimulating agonist; inverse agonist unless *
T1 construct: amino acids 156-461; NP009052; made in house; host or cells: E. coli
T1 sequence (P55055 with tags, fused parts or gaps INS174Q limits assumed): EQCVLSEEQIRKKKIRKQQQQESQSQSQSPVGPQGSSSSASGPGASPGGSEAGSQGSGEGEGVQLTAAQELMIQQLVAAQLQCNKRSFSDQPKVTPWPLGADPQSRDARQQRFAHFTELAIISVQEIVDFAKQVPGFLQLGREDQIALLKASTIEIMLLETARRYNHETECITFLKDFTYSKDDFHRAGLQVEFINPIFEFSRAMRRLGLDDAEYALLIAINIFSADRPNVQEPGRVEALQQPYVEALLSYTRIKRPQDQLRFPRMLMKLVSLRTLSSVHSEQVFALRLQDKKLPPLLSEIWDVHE
Method: The tested compounds were usually dissolved, tested and stored as 20 mM stock solutions in DMSO. […] Sulfonyl acetic acid derivatives are shelf stable as solid at rt for long time as reported by Griesbrecht et al. (Synlett 2010:374) or Faucher et al. (J. Med. Chem. 2004; 47:18). TR-FRETβ Activity Assay Recombinant GST-LXRβ ligand-binding domain (LBD; amino acids 156-461; NP009052; SEQ ID NO:4) was expressed in E. coli and purified via gluthatione-sepharose affinity chromatography. N-terminally biotinylated NCoA3 coactivator peptide (SEQ ID NO:7) was chemically synthesized (Eurogentec). […] Finally, a detection mix was added containing anti GST-Tb cryptate (CisBio; 610SAXLB) and Streptavidin-XL665 (CisBio; 610SAXLB) as fluorescent donor and acceptor, respectively, as well as the coactivator peptide and LXRβ-LBD protein (SEQ ID NO:4). The reaction was mixed thoroughly, equilibrated for 1 h at 4° C. and vicinity of LXRβ and coactivator peptide was detected by measurement of fluorescence in a VictorX4 multiplate reader (PerkinElmer Life Science) using 340 nm as excitation and 615 and 665 nm as emission wavelengths. Assays were performed in triplicates. Final Assay Concentrations of Components: 240 mM KCl, 1 μg/μL BSA, 0.002% Triton-X-100, 125 pg/μL anti GST-Tb cryptate, 2.5 ng/μL Streptavidin-XL665, coactivator peptide (400 nM), LXRP protein ([…], i.e. 76 nM).

LXRα full length (FL) = target: T2, LXRα full length (FL) (Homo sapiens, UniProt Q13133); experiment: LXR Gal4 reporter transient transfection assay, mammalian two-hybrid, FL-M2H Gal4α; format: cell-based; details: HEK293 cells; inverse agonist unless *
T2 construct: the full length (FL) proteins of LXRα (amino acids 1-447); NP005684; expressed in transfected cells; host or cells: HEK293
T2 sequence (Q13133 1-447): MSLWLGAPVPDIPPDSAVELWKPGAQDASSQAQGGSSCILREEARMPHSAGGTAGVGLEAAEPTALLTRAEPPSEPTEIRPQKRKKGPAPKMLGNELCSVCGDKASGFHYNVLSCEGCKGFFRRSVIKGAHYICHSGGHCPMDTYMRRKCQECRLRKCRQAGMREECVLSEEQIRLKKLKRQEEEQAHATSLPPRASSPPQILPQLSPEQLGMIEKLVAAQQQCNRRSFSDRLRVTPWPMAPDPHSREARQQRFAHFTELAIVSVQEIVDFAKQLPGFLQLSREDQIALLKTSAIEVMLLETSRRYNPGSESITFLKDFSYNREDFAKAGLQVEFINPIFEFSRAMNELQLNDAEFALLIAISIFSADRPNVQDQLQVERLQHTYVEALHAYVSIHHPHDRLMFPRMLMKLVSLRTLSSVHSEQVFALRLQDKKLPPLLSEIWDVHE
Method: (§1) The tested compounds were usually dissolved, tested and stored as 20 mM stock solutions in DMSO. Since sulfonyl acetic acid derivatives tend to decarboxylate under these conditions, these stock solutions were prepared, tested and stored as 20 mM DMSO stock solutions containing 100 mM trifluoroacetic acid (5 equivalents). Sulfonyl acetic acid derivatives are shelf stable as solid at rt for long time as reported by Griesbrecht et al. (Synlett 2010:374) or Faucher et al. (J. Med. Chem. 2004; 47:18).
(§2) LXR Gal4 Reporter Transient Transfection Assays
(§3) LXRα and LXRβ activity status was determined via detection of interaction with coactivator and corepressor proteins in mammalian two-hybrid experiments (M2H). For this, via transient transfection the full length (FL) proteins of LXRα (amino acids 1-447; NP005684; SEQ ID NO:1) or LXRβ-(amino acids 1-461; NP009052; SEQ ID NO:2) or the ligand-binding domains (LBD) of LXRα (amino acids 155-447 SEQ ID NO:3) or LXR (amino acids 156-461; SEQ ID NO:4) were expressed from pCMV-AD (Stratagene) as fusions to the transcriptional activation domain of NFkB. As cofactors, domains of either the steroid receptor coactivator 1 (SRC1; amino acids 552-887; SEQ ID NO:5) or of the corepressor NCoR (amino acids 1906-2312; NP006302; SEQ ID NO:6) were expressed as fusions to the DNA binding domain of the yeast transcription factor GAL4 (from pCMV-BD; Stratagene). Interaction was monitored via activation of a coexpressed Firefly Luciferase Reporter gene under control of a promoter containing repetitive GAL4 response elements (vector pFRLuc; Stratagene). Transfection efficiency was controlled via cotransfection of constitutively active pRL-CMV Renilla reniformis luciferase reporter (Promega). HEK293 cells were grown in minimum essential medium (MEM) with 2 mM L-glutamine and Earle's balanced salt solution supplemented with 8.3% fetal bovine serum, 0.1 mM non-essential amino acids, 1 mM sodium pyruvate, at 37° C. in 5% CO2. 3.5×10^4 cells/well were plated in 96-well cell culture plates in growth medium supplemented with 8.3% fetal bovine serum for 16-20 h to—90% confluency. For transfection, medium was taken off and LXR and cofactor expressing plasmids as well as the reporter plasmids are added in 30 μL OPTIMEM/well including polyethylene-imine (PEI) as vehicle. Typical amounts of plasmids transfected/well: pCMV-AD-LXR (5 ng), pCMV-BD-cofactor (5 ng), pFR-Luc (100 ng), pRL-CMV (0.5 ng). Compound stocks were prepared in DMSO, prediluted in MEM to a total volume of 120 μL, and added 4 h after addition of the transfection mixture (final vehicle concentration not exceeding 0.2%). Cells were incubated for additional 16 h, lysed for 10 min in 1×Passive Lysis Buffer (Promega) and Firefly and Renilla luciferase activities were measured sequentially in the same cell extract using buffers containing D-luciferine and coelenterazine, respectively. Measurements of luminescence were done in a BMG-luminometer.

LXRβ full length (FL) = target: T3, LXRβ full length (FL) (Homo sapiens, UniProt P55055, INS174Q); experiment: LXR Gal4 reporter transient transfection assay, mammalian two-hybrid, FL-M2H Gal4β; format: cell-based; details: HEK293 cells; inverse agonist unless *
T3 construct: the full length (FL) proteins of LXRα (amino acids 1-447); NP005684; NP009052; expressed in transfected cells; host or cells: HEK293
T3 sequence (P55055 with tags, fused parts or gaps INS174Q): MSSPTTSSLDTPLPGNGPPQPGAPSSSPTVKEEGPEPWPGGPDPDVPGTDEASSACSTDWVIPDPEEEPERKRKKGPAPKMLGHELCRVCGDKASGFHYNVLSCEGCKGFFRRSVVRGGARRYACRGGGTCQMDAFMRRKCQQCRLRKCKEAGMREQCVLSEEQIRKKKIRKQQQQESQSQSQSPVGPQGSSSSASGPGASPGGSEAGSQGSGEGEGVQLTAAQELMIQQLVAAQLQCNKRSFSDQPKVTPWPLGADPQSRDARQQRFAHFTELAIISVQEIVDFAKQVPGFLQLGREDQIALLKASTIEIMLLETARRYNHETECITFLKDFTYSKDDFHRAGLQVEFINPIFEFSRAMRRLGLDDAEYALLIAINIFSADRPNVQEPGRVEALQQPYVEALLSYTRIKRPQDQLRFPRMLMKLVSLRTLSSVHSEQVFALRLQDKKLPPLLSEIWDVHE
Method: as §1, §2, §3

Row | Compound | EC50 [1] [µM] | EC50 (LXRα full length (FL)) [µM] | EC50 (LXRβ full length (FL)) [µM]
1 | Cc1cc(C)c(CCN(Cc2ccc(-c3cccc(S(=O)(=O)CC(=O)O)c3)cc2)Cc2ccc(C(F)(F)F)o2)c(C)c1 [7/8] | > 10 | – | 1 to 10
2 | O=C(O)CS(=O)(=O)c1cccc(-c2ccc(CN(Cc3ccccc3)Cc3ccc(C(F)(F)F)o3)cc2)c1 [7/11] | – | – | 1 to 10
3 | COc1cc(-c2cccc(S(=O)(=O)CC(=O)O)c2)ccc1CN(Cc1ccc(C(F)(F)F)o1)Cc1c(C)cc(C)cc1C [15/2] | 1 to 10 | – | 1 to 10
4 | Cc1nc(C)c(CN(Cc2ccc(-c3cc(F)c(CO)c(S(=O)(=O)CC(=O)O)c3)cc2)Cc2ccc(C(F)(F)F)o2)c(C)n1 [22/6] | 1 to 10 | – | 1 to 10
5 | Cc1ccc2ccccc2c1C(=O)N(Cc1ccc(-c2cccc(C(C)(C)C(=O)O)c2)cc1)Cc1ccc(C(=O)O)o1 [27/29] | – | 1 to 10 | 1 to 10
6 | O=C(O)CS(=O)(=O)c1cccc(-c2ccc(CN(Cc3ccc(C(F)(F)F)o3)C3CCc4cccc5cccc3c45)cc2)c1 (centres unmarked) [27/40] | > 10 | – | 1 to 10
7 | Cc1cc(C)c(CN(Cc2ccc(-c3cccc(S(=O)(=O)CC(=O)O)c3)cc2)C(=O)c2ccc(C(F)(F)F)o2)c(C)c1 [27/57] | > 10 | – | –
8 | Cc1ccc2ccccc2c1C(=O)N(Cc1ccc(C(F)(F)F)o1)Cc1ccc(-c2cncc(C(C)(C)C(=O)O)c2)cc1C(F)F [27/63] | 0.1 to 1 | – | –
9 | Cc1cc(C)c(CN(Cc2ccc(-c3cccc(S(=O)(=O)CC(=O)NS(=O)(=O)N(C)C)c3)cc2)Cc2ccc(C(F)(F)F)o2)c(C)c1 [Example 2/1] | > 10 | – | –
10 | Cc1cc(C)c(CC(=O)N(Cc2ccc(-c3cccc(S(=O)(=O)CC(=O)O)c3)cc2)Cc2ccc(C(F)(F)F)o2)c(C)c1 [Example 9/1] | – | – | 1 to 10
11 | Cc1cc(C)c(CN(Cc2ccc(-c3ccc(CO)c(S(=O)(=O)CC(=O)O)c3)cc2)Cc2ccc(C(F)(F)F)o2)c(C)c1 [Example 12, 2-((4-(Hydroxvmethyl)-4′-((((5-(trifluoromethyl)furan-2-yl)methyl)(2,4,6-trimethyl-benzyl)amino)methyl)-[1,1′-biphenyl]-3-yl)sulfonyl)acetic acid] | 1 to 10 | – | –
12 | Cc1ccc2ccccc2c1C(=O)N(Cc1ccc(-c2cccc(S(=O)(=O)CC(=O)O)c2)cc1)Cc1ccc(C(N)=O)o1 [Example 16, 2-((4′-((N-((5-Carbamoylfuran-2-yl)methyl)-2-methyl-1-naphthamido)methyl)-[1,1′-biphenyl]-3-yl)sulfonyl)acetic acid] | – | – | 1 to 10
13 | Cc1ccc2ccccc2c1CN(Cc1ccc(C(F)(F)F)o1)Cc1ccc(-c2cccc(S(=O)(=O)CC(=O)O)c2)c2nccn12 [Example 27, 2-((3-(5-((((2-Methylnaphthalen-1-yl)methyl)((5-(trifluoromethyl)furan-2-yl)methyl)amino)methyl)imidazo[1,2-a]pyridin-8-yl)phenyl)sulfonyl)acetic acid] | > 10 | – | –

Other lines, results leading:

Row | EC50 [1] [µM] | EC50 (LXRα full length (FL)) [µM] | EC50 (LXRβ full length (FL)) [µM] | Compound
14 | < 0.1 | 0.1 to 1 | < 0.1 | Cc1cc(C)c(CN(Cc2ccc(-c3cccc(S(=O)(=O)CC(=O)N(C)O)c3)cc2)Cc2ccc(C(F)(F)F)o2)c(C)c1 [5/2]
15 | 0.1 to 1 | 1 to 10 | 1 to 10 | Cc1ccc2ccccc2c1C(=O)N(Cc1ccc(-c2cccc(S(=O)(=O)CC(=O)NS(C)(=O)=O)c2)cc1)Cc1ccc(C(F)(F)F)o1 [5/4]
16 | > 10 | – | 0.1 to 1 | Cc1cc(C)c(CN(Cc2ccc(C(F)(F)F)o2)Cc2sc(-c3cccc(S(=O)(=O)CC(=O)O)c3)cc2Cl)c(C)c1 [15/4]
17 | – | 1 to 10 | 0.1 to 1 | COc1cc(-c2cc(F)c(CO)c(S(=O)(=O)CC(=O)O)c2)cnc1CN(Cc1ccc(C(F)(F)F)o1)Cc1c(C)ccc2ccccc12 [22/3]
18 | – | < 0.1 | < 0.1 | CC1CCc2ccccc2N1C(=O)N(Cc1ccc(-c2cccc(C(C)(C)C(=O)O)c2)cc1)Cc1ccc(C(F)(F)F)o1 (centres unmarked) [27/96]
19 | – | < 0.1 | < 0.1 | COc1ccc2nc(C)c(C)c(C(=O)N(Cc3ccc(-c4cccc(C(C)(C)C(=O)O)c4)cc3)Cc3ccc(C(F)(F)F)o3)c2n1 [27/134]
20 | – | – | 0.1 to 1 | CC(C)(C(=O)O)c1cccc(-c2ccc(CN(Cc3ccc(C(F)(F)F)o3)C(CF)c3cccc4ccccc34)cc2)c1 (centres unmarked) [Example 18, 2-(4′-(((2-Fluoro-1-(naphthalen-1-yl)ethyl)((5-(trifluoromethyl)furan-2-yl)methyl)amino)methyl)-[1,1′-biphenyl]-3-yl)-2-methylpropanoic acid]
21 | 1 to 10 | – | 0.1 to 1 | Cc1cc(C)c(CN(Cc2ccc(-c3cc(F)c(CF)c(S(=O)(=O)CC(=O)O)c3)cc2)Cc2ccc(C(F)(F)F)o2)c(C)c1 [Example 20, 2-((5-Fluoro-4-(fluoromethyl)-4′-((((5-(trifluoromethyl)furan-2-yl)methyl)(2,4,6-trimethyl-benzyl)amino)methyl)-[1,1′-biphenyl]-3-yl)sulfonyl)acetic acid]
